These are literature values, as cited in patent US7094421B2, “Plaster containing 4-biphenylacetic acid” (Teikoku Seiyaki Co., Ltd., priority 2000, dated 2006).

For this series the following is noted: solvent crotamiton.

Consider `O=C(O)Cc1ccc(-c2ccccc2)cc1` [4-biphenylacetic acid], for which the “solubility of 4-biphenylacetic acid in crotamiton” value is on record as “about 7%”.
